Experimental data taken from patent US20030225007A1, “Sulfonamide derivatives of 3-substituted imidazol[1,2-d]-1,2,4-thiadiazoles and 3-substituted-[1,2,4] thiadiazolo[4,5-a] benzimidazole as inhibitors of fibrin cross-linking and transglutaminases” (Apotex Inc., priority 2002, published 2003).

Columns and labels:
[1] = molecular target: T1, Guinea pig liver TGase (Cavia cutleri, UniProt P08587); assay: Enzyme selectivity: inactivation of tissue type transglutaminase; type: biochemical; conditions: TGAse IC50, Guinea pig liver TGase; 5-min incubation at 37° C. in the absence of substrate
T1 construct: Guinea pig liver TGase; from tissue; host or cells: guinea pig liver
T1 sequence (P08587 2-690): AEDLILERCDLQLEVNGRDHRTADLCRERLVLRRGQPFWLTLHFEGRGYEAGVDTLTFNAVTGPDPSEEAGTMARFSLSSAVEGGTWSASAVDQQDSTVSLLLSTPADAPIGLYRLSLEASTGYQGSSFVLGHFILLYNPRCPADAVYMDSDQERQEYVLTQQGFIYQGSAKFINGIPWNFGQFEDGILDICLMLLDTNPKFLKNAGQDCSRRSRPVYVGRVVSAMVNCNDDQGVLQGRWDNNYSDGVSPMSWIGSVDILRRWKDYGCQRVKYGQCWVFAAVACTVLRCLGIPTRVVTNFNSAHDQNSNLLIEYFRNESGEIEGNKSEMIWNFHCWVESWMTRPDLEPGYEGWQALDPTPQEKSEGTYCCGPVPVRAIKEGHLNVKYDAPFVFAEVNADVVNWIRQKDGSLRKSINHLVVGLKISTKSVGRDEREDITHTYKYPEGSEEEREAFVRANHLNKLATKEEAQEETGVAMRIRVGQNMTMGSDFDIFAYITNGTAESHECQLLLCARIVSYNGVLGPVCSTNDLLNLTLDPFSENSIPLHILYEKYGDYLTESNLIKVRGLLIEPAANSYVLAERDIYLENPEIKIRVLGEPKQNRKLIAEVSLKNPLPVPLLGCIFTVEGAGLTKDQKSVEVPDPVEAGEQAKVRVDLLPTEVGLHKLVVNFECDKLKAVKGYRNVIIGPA
Protocol: Enzyme selectivity . Inactivation of tissue type transglutaminase: Inhibitor solution in DMSO (5 μL) was added to 250 mM Tris-Cl pH 7.5 containing 40 mM CaCl2 and 1 mM EDTA in a final volume of 42 μL. Guinea pig liver TGase (3 μL, 2.5 mg/mL in 5 mM Tris-HCl pH 7.5, 2 mM EDTA) was added and the mixture was incubated for 5 min. at 37° C.
An assay mixture composed of 50 mM Tris-Cl, pH 8.0, 10 mM CaCl2, 1 mM EDTA, 0.1% poly(ethylene glycol) (app. MW=1000) and 20 μM monodansylcadaverine was prepared in a spectrofluorimetric cell in a final volume of 2952 μL. Dimethylcasein (8 μL, 1% in 50 mM sodium phosphate pH 7.5) was added and the mixture was incubated at 37° C. for a few minutes. To assay the residual enzyme activity, 40 μL of the solution containing the enzyme and the inhibitor was transferred to the assay mixture. The covalent incorporation of monodansylcadaverine into casein was monitored by an increase in fluorescence at λexc=360 nm and λem=500 nm, as previously described ((Curtis, C. G.; Lorand, L. Methods Enzymol. 1976, 45, 177-191). To determine uninhibited enzyme activity, DMSO was used in place of inhibitor solution in the above assay. IC50 values were determined by plotting the percent of remaining enzyme activity against logarithm of inhibitor concentration. IC50 is defined here as inhibitor concentration resulting in 50% enzyme inactivation after 5-min incubation of the enzyme with the inhibitor in the absence of the substrate. Second order rate constants for inactivation were determined using method described by Kitz and Wilson (Kitz, R.; Wilson, I. J.Biol.Chem. 1962,237, 3245).

[2] = molecular target: T2, endogenous Factor XIII in plasma (Plasma FXIIIa) (Homo sapiens, UniProt P00488); assay: Inactivation of endogenous Factor XIII in plasma; type: biochemical; conditions: citrated plasma, thrombin-activated, 5 min at 37° C.
T2 construct: from tissue; host or cells: citrated plasma (desensitized by heating)
T2 sequence (P00488 39-732 limits assumed): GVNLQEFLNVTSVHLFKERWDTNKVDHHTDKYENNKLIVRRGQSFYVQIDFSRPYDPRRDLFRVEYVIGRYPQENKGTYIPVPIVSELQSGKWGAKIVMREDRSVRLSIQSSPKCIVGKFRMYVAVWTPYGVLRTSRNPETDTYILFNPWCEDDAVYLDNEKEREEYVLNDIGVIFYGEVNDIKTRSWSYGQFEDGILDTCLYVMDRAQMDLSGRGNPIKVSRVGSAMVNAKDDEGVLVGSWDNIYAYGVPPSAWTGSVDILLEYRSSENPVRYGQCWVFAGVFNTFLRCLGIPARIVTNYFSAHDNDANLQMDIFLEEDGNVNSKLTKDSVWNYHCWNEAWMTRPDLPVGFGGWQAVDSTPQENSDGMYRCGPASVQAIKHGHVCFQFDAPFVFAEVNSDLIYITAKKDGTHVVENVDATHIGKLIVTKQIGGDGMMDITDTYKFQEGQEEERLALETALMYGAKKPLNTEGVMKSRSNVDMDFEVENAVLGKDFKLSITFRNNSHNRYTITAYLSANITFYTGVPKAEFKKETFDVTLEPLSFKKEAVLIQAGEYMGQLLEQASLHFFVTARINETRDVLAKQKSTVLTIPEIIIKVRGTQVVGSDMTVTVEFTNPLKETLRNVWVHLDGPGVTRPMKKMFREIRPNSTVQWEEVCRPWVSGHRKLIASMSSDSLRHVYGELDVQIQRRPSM
Protocol: Citrated plasma (0.235 mL) was “desensitized” by heating with ethylene glycol monomethyl ether (0.235 mL, 20% solution in water) in a glass test tube at 56° C. for 4 min., as described by Lorand (Lorand, L.; Lockridge, O. M.; Campbell, L. K.; Myhrman, R.; Bruner-Lorand, J. Anal.Biochem. 1971, 44, 221-231). After cooling to 37° C., calcium chloride (20 μL, 0.4 M in 50 mM Tris-HCl pH 7.5) and inhibitor solution in 50% glycerol (59 μL) were added. Bovine thrombin (30 NIH units in 118 μL of 50 mM Tris-HCl pH 7.5 containing 20 mM CaCl2) was added and the mixture was incubated at 37° C. for 5 min.
An assay mixture composed of 0.1 M sodium borate, pH 9.0, 0.3% ethylene glycol monomethyl ether, 32 μM monodansylcadaverine, 10 mM CaCl2 and 0.08% dimethyl casein in a final volume of 1.263 mL was prepared in a spectrofluorometric cell and incubated at 37° C. for a few minutes. To assay the residual enzyme activity, 567 μL of the plasma solution was transferred to the assay mixture. The covalent incorporation of monodansylcadaverine into casein was monitored by an increase in fluorescence at λex=360 nm and λem=500 nm, as previously described (Curtis, C. G.; Lorand, L. Methods Enzymol. 1976, 45, 177-191). To determine uninhibited enzyme activity, inhibitor solution was replaced by 50% glycerol. IC50 values (inhibitor concentration resulting in 50% enzyme inactivation) were determined by plotting the percent of remaining enzyme activity against logarithm of inhibitor concentration.

SMILES	IC50 [1] [µM]	IC50 [2] [µM]
O=S(=O)(NCCCCCCNc1nsc2nccn12)c1cccc2ccccc12 [1-naphthyl, N-[6-(imidazo[1,2-d][1,2,4]thiadiazol-3-ylamino)hexyl]naphthalene-1-sulfonamide]	23	8.4
O=S(=O)(Cc1ccccc1)NCCCCCCNc1nsc2nccn12 [2 / CH2Ph, N-[6-(imidazo[1,2-d][1,2,4]thiadiazol-3-ylamino)hexyl]-1-phenylmethanesulfonamide]	27	19
O=S(=O)(NCCCCCCNc1nsc2nccn12)c1ccc(F)cc1F [2,4-diF-Ph, 2,4-difluoro-N-[6-(imidazo[1,2-d][1,2,4]thiadiazol-3-ylamino)hexyl]benzenesulfonamide]	23	6.1
O=S(=O)(NCCCCCCNc1nsc2nccn12)c1ccc(OC(F)(F)F)cc1 [4-OCF3-Ph, N-[6-(imidazo[1,2-d][1,2,4]thiadiazol-3-ylamino)hexyl]-4-trifluoromethoxybenzenesulfonamide]	31	31
O=C(O)CN(CCCCCCNS(=O)(=O)c1ccccc1[N+](=O)[O-])c1nsc2nccn12 [H / CH2CO2H / 2-NO2-Ph, N-imidazo[1,2-d][1,2,4]thiadiazol-3-yl-N-(6-{[(2-nitrophenyl)sulfonyl]amino}hexyl)glycine]	17	
